In one data set the test system is splenocytes. The data set can be described thus: Tumor antigen-specific IFN-γ production in splenocytes (Trp2, GP100 & Tyr peptides). It is filed as in vivo, mice. The settings on record: two IT doses, day 4, FIG. 13G. On the procedure:
FIG. 13B provides representative H&E stained images from PBS, CDN2 (20 μg), and exoCDN2 (0.12 μg) treated samples. FIG. 13C is a table showing the number of complete responders by histopathological analysis. […] FIG. 13F is a graphical representation of tumor growth after CD8 T cell depletion in B16F10 tumor bearing mice following administration of the IgG (10 mg/kg) or anti-CD8 antibody (10 mg/kg) intraperitoneally, one day before IT injection (n=5 per group). Blue arrows indicate intraperitoneal injection days (FIG. 13F). […] Data are presented as means±s.e.m.
We next evaluated the capacity of exoSTING to induce systemic, antigen specific T cell responses in the B16F10 tumor model. Several tumor-associated CD8-dependent antigens have been identified as dominant antigens from B16F10 tumor cells (Kreiter et al., Nature 520, 692-696 (2015), which is incorporated by reference herein in its entirety).

In data set [1] the test system is T cells stimulated with anti-CD3 and anti-CD28. It is filed as cell-based, human. The settings on record: FIG. 17G. An excerpt:
(§1) FIGS. 17F and 17G show representative dose-response curves of IFN-β production (FIG. 17F) and cytotoxicity (FIG. 17G) in stimulated T cells after treating with free CDN2 and exoCDN2. T cells were purified from human PBMCs and stimulated with anti-CD3/anti-CD28.
(§2) Next, we characterized the effect of exoSTING for free CDN on naïve or TCR stimulated T cells. We purified T cells and treated them with a dose titration of exoSTING or free CDN and compared IFNβ production in the presence or absence of TCR stimulation. […] We next characterized induction of T cell death using Cytotox dye staining following exoSTING or free CDN2 treatment in T cells stimulated with anti-CD3 and anti-CD28. Following free CDN2 treatment, we observed a dose dependent increase in T cell death (up to ~20% of T cells) as measured by Cytotox dye staining (FIG. 17G). […] Importantly, exoSTING preserves the viability of TCR stimulated T cells.

Data set [2] deals with CD8+ T cells and XCR1+ DCs in B16F10 tumors. The data set can be described thus: Flow cytometry of B16F10 tumors after two IT injections. It is filed as in vivo, mice. The settings on record: 20 μg, FIG. 15D. As to the method: FIG. 15 is a graphical representation of IFN-β positive area. FIG. 15C is a graphical representation of CD8 positive cells. FIGS. 15D-15E are graphical representations of the percentage of CD8 T cells in live CD45^+ cells in tumors (FIG. 15D) and CD86 expression on dendritic cells (FIG. 15E) as measured by flow cytometry after 2 doses of PBS, CDN2 (20 μg), and exoCDN2 (0.2 μg) into B16F10 tumors (n=5 per group). *, P<0.05; **, P<0.01; ****, P<0.0001 by one-way ANOVA with Tukey's multiple comparison test; n.s., non-significant.
We also assessed CD8^+ T cell and XCR1^+ DC activation after two IT injections of exoSTING and free CDN2 by flow cytometry. […] This increase in CD8^+ T cell is consistent with the increased CXCL9 and CXCL10 production following exoSTING treatment (FIGS. 14D and 14E). […] The enhanced activation of this DC subset seen with exoSTING but to a lesser degree with free CDN, is consistent with the observed superiority of anti-tumor activity of exoSTING in the B16F10 model (FIGS. 12 and 13).

The next data set concerns B16F10 tumor. The data set is described as follows: B16F10 subcutaneous tumor growth after intratumoral injection. It is filed as in vivo, C57BL/6 mice. The settings on record: 0.1 μg CDN2, IT, FIG. 12F. As to the method: C57BL/6 mice were implanted subcutaneously with 1×10^6 B16F10 cell on right flank of mice. Additional implantation of tumors is specified in each legend. When tumor volumes reached 50-100 mm^3, testing agents were injected intratumorally 3 times with 3 days interval. Red arrows in the graph indicate IT injection days. Tumor growth were measured over time. n=5 per group. […] RLU: Relative Luminescent Unit. ****, P<0.0001 by two-way ANOVA with Tukey's multiple comparison test for tumor growth studies. Data are presented as means±s.e.m. (FIGS. 12D-12F).
Data are presented as means±s.e.m. RLU: Relative Luminescent Unit. […]
We have previously identified and characterized exosome-specific surface glycoproteins using unbiased proteomic analysis and identified the immunoglobulin super family member PTGFRN as a protein that is enriched on human exosomes and contains nine predicted N-linked glycosylation sites (see Dooley et al., Cancer Res. 79(13 Suppl), Abstract nr 2150 (2019), which is incorporated by reference herein in its entirety). […] These populations of exosomes were next examined for their capacity activate STING pathway as measured by IFN-β production. […] EC50 values and maximal IFN-β cytokine production (Cmax) were assessed from multiple donors. […]

Data set [3] is described as follows: CDN in plasma / systemic circulation after IT injection, LC-MS/MS. It is filed as in vivo, C57BL/6 mice. On the procedure:
(§3) C57BL/6 mice were implanted subcutaneously with 1×10^6 B16F10 cells. FIGS. 14A and […] are graphical representations showing the concentration of CDN2 in tumors (FIG. 14A) and plasma (FIG. 14B) as measured by LC-MS/MS at 5 minutes, 30 minutes, 2 hours, 6 hours, 24 hours, and 48 hours after single IT injection (n=3 per group at each time point) in C57BL/6 mice implanted subcutaneously with 1×10^6 B16F10 cells. FIGS. 14C-14E are graphs showing the relative expression of IFN-β (FIG. 14C), CXCL9 (FIG. 14D), and CXCL10 (FIG. 14E) genes as measured by RT-qPCR, normalized against the housekeeping gene RPS13. FIGS. 14F-14H are graphs showing serum levels of IFN-β (FIG. 14F), TNF-α (FIG. 14G), and IL-6 (FIG. 14H) (n=5 per group). Data are presented as means±s.e.m. *, P<0.05; **, P<0.01; ***, P<0.001; ****, P<0.0001 by one-way ANOVA with Tukey's multiple comparison test.
(§4) A major limitation of IT administration of free CDN is its rapid dissemination into the systemic circulation (see Sivick et al., Cell Rep. 25, 3074-3085.e5 (2018)). […] This reduces the effectiveness of the CDN to elicit a productive immune response in the tumor resulting in higher doses of free CDN required for efficacy. In B16F10 tumors after injection of exoSTING or free CDN, we measured the amount of CDN in tumors and blood over time.
Further, free CDN2 is cleared rapidly in the systemic circulation (106 mL/hr).

A further data set relates to naïve T cells. The data set is described as follows: IFN-β production in naïve T cells. In kind it is cell-based, human.
From the text: as §2

Another data set has as its system B16F10 tumors. The data set is described as follows: Histology of injected B16F10 tumors (H&E, IFN-β mRNA, CD8, F4/80). In kind it is in vivo. The settings on record: free CDN2 20 μg, exoSTING 0.1 μg, 4 and 24 hours after two injections, FIG. 15A.
For data set [4], the system named is T cells stimulated by anti-CD3 and anti-CD28. The data set can be described thus: IFN-β production in T cells stimulated by anti-CD3 and anti-CD28. It is filed as cell-based, human. The settings on record: FIG. 17F.
From the text: as §1, §2

The test system of the next data set is human PBMC. The data set can be described thus: IFN-β production in human PBMC supernatant. It is filed as cell-based. The following applies: FIG. 12A.
For data set [5], the system named is global gene expression in B16F10 tumors. The data set is described as follows: RNA sequencing of B16F10 tumors after 1 or 2 IT injections. The settings on record: after 2 doses, exoSTING 0.1 μg, free CDN2 20 μg, FIG. 16E. In kind it is in vivo, mice. As to the method: FIGS. 16A-16C are box plots showing the relative expression of IFN-β (FIG. 16A), CD274 (FIG. 16B), and CXCL9 (FIG. 16C) as measured by NanoString in RNA samples collected four hours after IT injection of PBS, CDN2 (0.1, 20, or 100 μg), and exoCDN2 (0.001, 0.01, or 0.1 μg) into B16F10 tumors. Data are presented as means±s.e.m. *, P<0.05; **, P<0.01; ***, P<0.001; ****, P<0.0001 by one-way ANOVA with Tukey's multiple comparison test. […] All genes were compared to PBS treatment. […] Adjusted P values are indicated.
To further characterize the immune pathway activation, we evaluated the global gene expression changes after 1 or 2 IT injections of efficacious doses of exoSTING (0.1 μg) and free CDN2 (20 μg) by RNA sequencing. All samples were compared to PBS treatment. […] Tcf7 (which encodes TCF1) is a key transcription factor expressed in the stem-like progenitor CD8^+ T cells (Siddiqui et al., Immunity. 50, 195-211.e10 (2019)). This cell subset is required for response to checkpoint inhibitor therapies. (Siddiqui, 2019). […] This loss may underlie the lack of immunological memory response to free CDN.
In contrast, high doses of free CDN decrease the expression of these key genes as well as reducing the expression of APC markers.

Data set [6] is described as follows: Pharmacokinetics of CDN in injected B16F10 tumors, LC-MS/MS. In kind it is in vivo, C57BL/6 mice. The following applies: injected tumor. On the procedure: as §3, §4

Procedure for human PBMC: We compared the activity of co-administered exosomes and free CDN with exoSTING in in vitro PBMC assays.
These populations of exosomes were next examined for their capacity activate STING pathway as measured by IFN-β production. […] These CDN-loaded exosomes were assayed in vitro for their potential to induce IFN-β production in PBMC cultures. EC50 values and maximal IFN-β cytokine production (Cmax) were assessed from multiple donors.

Regarding `Nc1ncnc2c1ncn2[C@@H]1O[C@@H]2COP(O)(=S)O[C@@H]3C(O)[C@@H](COP(O)(=S)O[C@H]2[C@H]1O)O[C@H]3n1cnc2c(N)ncnc21` (some centres unmarked) [CDN1, ML RR-S2], the “increase in the number of IFN-γ positive spots compared to PBS control” value in the data set on splenocytes (0.2 μg) is recorded as “failed to induce IFN-γ positive spots”. Moreover, the “IFN-γ positive spots compared to PBS control” value in the data set on splenocytes (20 μg) is reported as “failed to induce IFN-γ positive spots”.
In the case of `Nc1ncnc2c1ncn2[C@@H]1O[C@@H]2COP(O)(=S)O[C@H]3[C@@H](F)[C@H](n4cnc5c(=O)[nH]cnc54)O[C@@H]3COP(O)(=S)O[C@H]2[C@H]1F` (some centres unmarked) [CDN2, cAIM(PS)2 Difluor (Rp/Sp)], in data set [1], the “T cell death by Cytotox dye staining (maximum, dose dependent)” value is reported as ~ 20 % of T cells. Moreover, the “number of viable CD8+ T cells compared PBS control” value in [2] is listed as “significantly decreased”. The tumor growth entry in the data set with B16F10 tumor was “Neither free CDN2 (0.1 μg) or co-administered PTGFRN^+/+ exosomes mixed with free CDN2 (0.1 μg) resulted in measurable tumor growth inhibition”. The “detection in the plasma at the 30-minute timepoint” value in data set [3] (30 μg IT) is given as “detectable in the plasma”. The “clearance in the systemic circulation” value in data set [3] (free CDN2 after IT injection (30 μg)) was 106 mL/h. In the data set on naïve T cells, the IFN-β production result is “no IFN-β production was observed”. Besides, the “tissue damage by H&E staining” value in the data set on B16F10 tumors was “significant evidence of tissue damage in the skin and tumor cell death”. Moreover, in data set [4], the concentration for a half-maximal effect (EC50) is ~8.2 µM. For the same molecule, the EC50 with human PBMC was ~9.7 µM. The Tcf7 levels result in [5] is “decrease in Tcf7 levels”. In data set [6] (0.3 μg single IT), the AUC was found to be 799 ng·h/mL, the CL is 0.375 mL/h, the Cmax is 1,240 ng/mL and the T1/2 turned out to be 0.620 h. For the same molecule, in data set [6] (30 μg single IT), the AUC was 97,300 ng · hr/mL, the CL is 0.308 mL/h, the Cmax is recorded as 13,800 ng/mL and the T1/2 was 2.05 h.

One may read the EC50 as the concentration at which the effect is half-maximal. Broadly, the AUC is concentration integrated over time. The low end stands for low exposure, the high end for high exposure.

Source of the values: patent US12728098B2, “Methods of producing extracellular vesicles” (LONZA SALES AG, priority 2019, dated 2026).
